According to patent US20120207763A1, “PYRROLOPYRIMIDINE COMPOUNDS AND THEIR USES” (ASTEX THERAPEUTICS LIMITED, priority 2006, published 2012):
Like-named read-outs stand apart in the source and are kept apart here.

Tests used:
Format in all cases: biochemical
JAK-3 = biological target: T1, JAK-3 (Homo sapiens, UniProt P52333); test: JAK LANCE enzymatic assay (JAK-3); conditions: Table A; read-out: Jak-3/ IC50
T1 construct: GST fusion constructs of the kinase domains of both enzymes are used; GST
T1 sequence (P52333 822-1111 limits assumed): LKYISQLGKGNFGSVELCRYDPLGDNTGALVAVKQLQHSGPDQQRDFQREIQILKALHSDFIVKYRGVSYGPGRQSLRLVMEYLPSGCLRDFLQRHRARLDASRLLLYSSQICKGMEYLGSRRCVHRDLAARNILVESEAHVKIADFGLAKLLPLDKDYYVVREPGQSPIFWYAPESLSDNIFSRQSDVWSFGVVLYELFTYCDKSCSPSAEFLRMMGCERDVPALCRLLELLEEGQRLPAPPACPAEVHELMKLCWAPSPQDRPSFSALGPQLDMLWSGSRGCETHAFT
From the text: Binding of cytokines and certain growth factors to their respective receptors trigger activation of Janus kinases, which phosphorylate members of the STAT family. Phosphorylated STAT molecules dimerize and migrate to the nucleus where they bind to DNA and initiate transcription of responsive genes. Inhibitors of pathways downstream of cytokine/growth factor receptors have therapeutic potential for several indications. An enzymatic assay for JAK-3 and JAK-2 has been developed to identify T-cell selective inhibitors. GST fusion constructs of the kinase domains of both enzymes are used and a biotinylated, tyrosine containing peptide serves as substrate. Phosphorylation of this peptide by the respective kinase is quantified with an europium-labeled anti-phosphotyrosine antibody (Eu-PT66) as energy donor and a streptavidin-allophycocyanine conjugate (SA-APC) as energy acceptor. The assay has been established in a 384 well format.
In the JAK LANCE™ assay, a biotinylated peptide is incubated together with compounds and ATP in buffer. The phosphorylation reaction starts after addition of JAK kinase. After incubation at RT the reaction is stopped with EDTA and the product detected by addition Streptavidin-Allophycocyanin and Europium-labeled antiphosphotyrosine antibody. The signal is measured using an EnVision Reader. Exc: 320 nm, Em, Donor: 615 nm and Em, Acceptor: 665 nm in time resolved fashion with a delay of […].

[1] = biological target: CDK2/Cyclin-A kinase complex (Homo sapiens, UniProt P24941); test: CDK2 IMAP fluorescence polarization assay; conditions: Table E; read-out: CDK2cyA IMAP/IC50 [umol l − 1]
From the text: In order to test the CDK2 activity of the compounds of the invention, the CDK2 assay is a flourescence polarization assay, where the enzyme is a purified active CDK2/Cyclin-A kinase complex and the substrate is a synthesized peptide derived from Histone H1. This assay utilizes the IMAP technology from Molecular Devices. The active CDK2/Cyclin-A complex phosphorylates the peptide substrate, which is conjugated with the TAMRA tag. The phosphorylated site is then recognized by a metal containing molecule that interacts with the TAMRA tag to induce a high flourescence polarization. The compounds that inhibit the CDK2 kinase activity would inhibit the flourescence output of the assay.

CDK4 = CDK4 (Homo sapiens, UniProt P11802); test: CDK4 HTRF assay; conditions: Table E
Sequence of CDK4 (P11802 whole entry): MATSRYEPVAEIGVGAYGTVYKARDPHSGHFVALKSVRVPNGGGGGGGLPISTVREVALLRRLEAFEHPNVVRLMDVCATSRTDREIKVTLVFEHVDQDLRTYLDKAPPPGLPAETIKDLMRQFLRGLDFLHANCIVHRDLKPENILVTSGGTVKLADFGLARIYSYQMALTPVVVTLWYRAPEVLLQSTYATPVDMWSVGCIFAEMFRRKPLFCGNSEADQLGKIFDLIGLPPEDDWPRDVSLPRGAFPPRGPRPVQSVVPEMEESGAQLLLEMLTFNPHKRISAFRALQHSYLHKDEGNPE
Sequence of CDK4 (P24385 whole entry partner): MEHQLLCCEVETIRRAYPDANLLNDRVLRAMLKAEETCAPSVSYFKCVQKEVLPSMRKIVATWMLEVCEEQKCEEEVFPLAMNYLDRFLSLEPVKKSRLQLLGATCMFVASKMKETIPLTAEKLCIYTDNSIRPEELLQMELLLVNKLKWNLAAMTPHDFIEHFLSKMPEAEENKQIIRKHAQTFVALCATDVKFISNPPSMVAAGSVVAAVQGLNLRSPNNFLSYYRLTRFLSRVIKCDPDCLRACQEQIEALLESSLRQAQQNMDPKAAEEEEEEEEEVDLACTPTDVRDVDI

[2] = read-out: CDK4 HTRF/IC50 [umol l − 1]

SMILES | IC50 (JAK-3) [µM] | IC50 [1] [µM] | IC50 (CDK4; [2]) [µM] | IC50 (CDK4; CDK4 HTRF/IC50 [umol l − 1]) [µM]
CCC(CC)N1C(=O)Cc2cnc(Nc3cccc(C(=O)N4CCN(C)CC4)c3)nc21 | ≥ 0.1 | – | – | –
CCC(CC)N1C(=O)Cc2cnc(Nc3ccc(C(=O)N4CCOCC4)cc3)nc21 | ≥ 0.1 | – | – | –
CCC(CC)n1c(=O)n(C)c2cnc(Nc3ccc(N4CCN(C(C)=O)CC4)cc3)nc21 | ≤ 0.1 | – | – | –
CCC(CC)n1cnc2cnc(Nc3ccc(N4CCN(C(C)=O)CC4)cc3)nc21 | ≥ 0.1 | – | – | –
CCC(CC)N1C(=O)Cc2cnc(Nc3cccc(OCCN4CCOCC4)c3)nc21 | ≥ 0.1 | – | – | –
CCC(CC)N1C(=O)Cc2cnc(Nc3ccc(NC(=O)c4cccnc4)cc3)nc21 | ≥ 0.1 | – | – | –
CCC(CC)n1c(=O)n(C)c2cnc(Nc3ccc(N4CCN(C)CC4)cc3)nc21 | ≤ 0.1 | – | – | –
CCC(c1ccccc1)N1C(=O)Cc2cnc(Nc3ccc(N4CCN(C(C)=O)CC4)cc3)nc21 (stereo not shown) | ≥ 0.1 | – | – | –
CCC(c1ccccc1)N1C(=O)Cc2cnc(Nc3cccc(OCCn4ccnc4)c3)nc21 (stereo not shown) | ≥ 0.1 | – | – | –
CCC(CC)N1C(=O)Cc2cnc(Nc3cccc(OCCN4CCN(C)CC4)c3)nc21 | ≥ 0.1 | – | – | –
CCC(CC)N1C(=O)Cc2cnc(Nc3cccc(OCCN(CC)CC)c3)nc21 | ≥ 0.1 | – | – | –
CCC(CC)N1C(=O)Cc2cnc(Nc3cccc(OCCn4ccnc4)c3)nc21 | ≥ 0.1 | – | – | –
CCC(c1ccccc1)n1ccc2cnc(Nc3ccc(N4CCN(C(C)=O)CC4)cc3)nc21 (stereo not shown) | ≤ 0.1 | – | – | –
CCC(c1ccccc1)N1C(=O)Cc2cnc(Nc3cccc(OCCN4CCCC4)c3)nc21 (stereo not shown) | ≥ 0.1 | – | – | –
CCC(CC)n1cnc2cnc(Nc3ccc(N4CCN(C)CC4)cc3)nc21 | ≥ 0.1 | – | – | –
CCC(CC)n1c(=O)[nH]c2cnc(Nc3ccc(N4CCN(C)CC4)cc3)nc21 | ≤ 0.1 | – | – | –
CCC(CC)N1C(=O)Cc2cnc(Nc3cccc(NCCN4CCCC4)c3)nc21 | ≤ 0.1 | – | – | –
CCC(CC)N1C(=O)Cc2cnc(Nc3cccc(NCCN4CCN(C)CC4)c3)nc21 | ≤ 0.1 | – | – | –
CCC(CC)N1C(=O)Cc2cnc(Nc3ccc(NC(=O)c4ccncc4)cc3)nc21 | ≥ 0.1 | – | – | –
CCC(CC)N1C(=O)Cc2cnc(Nc3ccc(C(=O)NC(C)C)cc3)nc21 | ≥ 0.1 | – | – | –

SMILES | IC50 (JAK-3) [µM] | IC50 [1] [µM] | IC50 (CDK4; [2]) [µM] | IC50 (CDK4; CDK4 HTRF/IC50 [umol l − 1]) [µM]
CCC(CC)N1C(=O)Cc2cnc(Nc3ccc(C(=O)NC4CCCC4)cc3)nc21 | ≤ 0.1 | – | – | –
CCNC(=O)c1ccc(Nc2ncc3c(n2)N(C(CC)CC)C(=O)C3)cc1 | ≤ 0.1 | – | – | –
CCC(CC)N1C(=O)Cc2cnc(Nc3ccc(C(=O)NC(C)(C)C)cc3)nc21 | ≥ 0.1 | – | – | –
CCC(CC)n1ccc2cnc(Nc3cccc(OCCN4CCCC4)c3)nc21 | ≤ 0.1 | – | – | –
CCC(CC)N1C(=O)Cc2cnc(Nc3ccc(C(=O)NC)cc3)nc21 | ≥ 0.1 | – | – | –
CCC(CC)N1C(=O)Cc2cnc(Nc3ccc(C(=O)N(C)C)cc3)nc21 | ≥ 0.1 | – | – | –
Cc1cn(-c2ccccc2)c2nc(Nc3ccc(N4CCNCC4)cc3)ncc12 [Example 273] | – | > 10 | > 10 | –
Cc1cn(C2CC2)c2nc(Nc3ccc(N4CCNCC4)cc3)ncc12 [Example 276] | – | > 10 | > 10 | –
Cc1cn(C2CCCC2)c2nc(Nc3ccc(N4CCN(S(C)(=O)=O)CC4)cn3)ncc12 [Example 287] | – | > 10 | 10 | –
COc1ccccc1Nc1ncc2c(C)cn(C3CCCC3)c2n1 [Example 293] | – | > 10 | 10 | –
COc1cccc(Nc2ncc3c(C)cn(C4CCCC4)c3n2)c1 [Example 294] | – | < 10 | 10 | –
Cc1cn(C2CCCC2)c2nc(Nc3ccccc3[N+](=O)[O-])ncc12 [Example 295] | – | > 10 | 10 | –
Cc1cn(C2CCCC2)c2nc(Nc3ncccn3)ncc12 [Example 296] | – | > 10 | 10 | –
Cc1cccnc1Nc1ncc2c(C)cn(C3CCCC3)c2n1 [Example 297] | – | > 10 | 10 | –
Cc1cn(C2CCCC2)c2nc(Nc3cccc(Cl)c3)ncc12 [Example 299] | – | < 10 | 10 | –
Cc1cn(C2CCCC2)c2nc(Nc3ccccc3C#N)ncc12 [Example 301] | – | > 10 | 10 | –
Cc1c(Cl)c2cnc(Nc3ccc(N4CCNCC4)cn3)nc2n1C1CCCC1 [Example 334] | – | > 10 | < 1 | –
CCC(CC)n1c(C(=O)N(C)C)cc2cnc(Nc3ccc(N4CCNCC4)cc3)nc21 [Example 335, 7-(1-ethyl-propyl)-2-(4-piperazin-1-yl-phenylamino)-7H-pyrrolo[2,3-d]pyrimidine-6-carboxylic acid dimethyl amide] | – | < 10 | < 1 | –
CCC(CC)n1c(C(=O)Nc2ccccc2)cc2cnc(Nc3ccc(N4CCNCC4)cc3)nc21 [Example 345] | – | < 10 | < 1 | –
CCC(CC)n1c(-c2cnco2)cc2cnc(Nc3ccc(N4CCN(C(C)=O)CC4)cc3)nc21 [Example 363, 1-(4-{4-[7-(1-Ethyl-propyl)-6-oxazol-5-yl-7H-pyrrolo[2,3-d]pyrimidin-2-ylamino]-phenyl}-piperazin-1-yl)-ethanone] | – | < 1 | < 1 | –

SMILES | IC50 (JAK-3) [µM] | IC50 [1] [µM] | IC50 (CDK4; [2]) [µM] | IC50 (CDK4; CDK4 HTRF/IC50 [umol l − 1]) [µM]
CCC(CC)n1c(C(C)O)cc2cnc(Nc3ccc(N4CCN(C(C)=O)CC4)cc3)nc21 (stereo not shown) [Example 376, 1-(4-{4-[7-(1-Ethyl-propyl)-6-(1-hydroxy-ethyl)-7H-pyrrolo[2,3-d]pyrimidin-2-ylamino]-phenyl}-piperazin-1-yl)-ethanone] | – | < 10 | < 1 | –
CCC(CC)n1c(C(C)=O)cc2cnc(Nc3ccc(N4CCN(C(C)=O)CC4)cc3)nc21 [Example 377, 1-[2-[4-(4-Acetyl-piperazin-1-yl)-phenylamino]-7-(1-ethyl-propyl)-7H-pyrrolo[2,3-d]pyrimidin-6-yl]-ethanone] | – | < 1 | < 1 | –
CCC(CC)n1c(C(C)OC)cc2cnc(Nc3ccc(N4CCNCC4)cc3)nc21 (stereo not shown) [Example 378, [7-(1-Ethyl-propyl)-6-(1-methoxy-ethyl)-7H-pyrrolo[2,3-d]pyrimidin-2-yl]-(4-piperazin-1-yl-phenyl)-amine] | – | < 10 | < 1 | –
COC(=O)c1c(C)c2cnc(Nc3ccc(N4CCNCC4)cn3)nc2n1C1CCCC1 [Example 384, 7-Cyclopentyl-5-methyl-2-(5-piperazin-1-yl-pyridin-2-ylamino)-7H-pyrrolo[2,3-d]pyrimidine-6-carboxylic acid methyl ester] | – | > 10 | < 1 | –
COC(=O)c1c(C)n(C2CCCC2)c2nc(Nc3ccc(N4CCNCC4)cn3)ncc12 [Example 385, 7-Cyclopentyl-6-methyl-2-(5-piperazin-1-yl-pyridin-2-ylamino)-7H-pyrrolo[2,3-d]pyrimidine-5-carboxylic acid methyl ester] | – | > 10 | > 10 | –
Cc1c(-c2cnco2)n(C2CCCC2)c2nc(Nc3ccc(N4CCNCC4)cn3)ncc12 [Example 399] | – | < 10 | < 1 | –
Cc1cc(-c2c(C)c3cnc(Nc4ccc(N5CCNCC5)cn4)nc3n2C2CCCC2)[nH]n1 [Example 404] | – | > 10 | < 1 | –
COC(=O)c1c(C)n(C2CCCC2)c2nc(Nc3ccc(N4CCNCC4)cc3)ncc12 [Example 408] | – | > 10 | > 10 | –
c1cc(Nc2ncc3ccn(C4CCCC4)c3n2)ncc1N1CCNCC1 [Example 424] | – | > 10 | – | < 1
Cc1cn(C2CCCCC2)c2nc(Nc3ccc(N4CCNCC4)cn3)ncc12 [Example 426] | – | > 10 | < 1 | –
Brc1cn(C2CCCC2)c2nc(Nc3ccc(N4CCNCC4)cn3)ncc12 [Example 432] | – | > 10 | > 10 | –
Clc1cn(C2CCCC2)c2nc(Nc3ccc(N4CCNCC4)cn3)ncc12 [Example 433] | – | > 10 | < 1 | –
Cc1ccc(Nc2ncc3ccn(C4CCCC4)c3n2)nc1 [Example 434] | – | > 10 | > 10 | –
Cc1ccc(Nc2ncc3ccn(C4CCCC4)c3n2)cc1 [Example 435] | – | < 10 | > 10 | –
Cc1cn(C2CCCC2)c2nc(Nc3ccccc3F)ncc12 [Example 441] | – | > 10 | 10 | –
Cc1cn(C2CCCC2)c2nc(Nc3ccc(F)cc3)ncc12 [Example 442] | – | < 10 | 10 | –
Cc1cn(C2CCCC2)c2nc(Nc3ccccc3Cl)ncc12 [Example 443] | – | > 10 | 10 | –
Cc1c(C(=O)O)n(C2CCCC2)c2nc(Nc3ccc(N4CCNCC4)cn3)ncc12 [Example 444] | – | > 10 | < 1 | –
Cc1cn(-c2nccs2)c2nc(Nc3ccc(N4CCN(S(C)(=O)=O)CC4)cn3)ncc12 [Example 446] | – | < 10 | 10 | –
Cc1cn(-c2cccnc2)c2nc(Nc3ccc(N4CCNCC4)cn3)ncc12 [Example 447] | – | > 10 | 10 | –
